Experimental data from patent publication US11571484B2, “Compositions that target tumor-associated macrophages and methods of use therefor” (Sanford Burnham Prebys Medical Discovery Institute, priority 2017, dated 2023).
Several values for one entry are separate records, joined by “and”; a condition that tells them apart may be missing. Identical values can stand only once. Ends that are not written are not given here. FAM = 5(6)-carboxyfluorescein; Ahx = NCCCCCC(=O)O

Experiments:
recombinant mouse CD163 = biological target: T1, recombinant mouse CD163 (Mus musculus, UniProt Q2VLH6); assay: Fluorescence anisotropy assay with recombinant CD163; format: binding; details: 50 nM FAM peptide, 1 μM protein, 25 °C
T1 construct: purchased R&D Systems 7435-CD-050
Method: The recombinant mouse macrophage mannose receptor rmMMR/CD206 (R&D Systems, catalog number: 2535-MM-050) and recombinant mouse CD163 (R&D Systems, catalog number: 7435-CD-050) were reconstituted at 1 mg/ml in IB, aliquoted and stored at −20° C. To generate linearized version of cyclic FAM-UNO peptide, the peptide at 1 mM concentration was preincubated for 24 h at room temperature in a dark place with 3 mM DTT and diluted with IB 2×10^5 times before the FA assay. The control experiment with FAM-CPMTDNE peptide (FIG. 22) was performed to rule out the possibility of disulphide bond formation, which could affect the binding properties of linear peptides. […]
Fluorescence anisotropy was also carried out using recombinant human macrophage mannose receptor rhMMR/CD206 to determine whether UNO peptide interactions with mouse CD206 carried over to human CD206. […]
In all experiments, FA signal measurements were done under pseudo first-order conditions with 50 nM singly labelled FAM peptides and 1 μM proteins. […] Assays were carried out in kinetic mode in a total volume of 30 μl at 25° C. on the PHERAstar (BMG Labtech, Germany) microplate reader using an optical module with excitation and emission filters of 485 nm (slit 10 nm) and 520 nm (slit 10 nm), respectively. […] FA signals at time t after initiation of binding reaction was calculated as parameters r(t) from the equation: […]

[1] = system: peritoneal cells (CCR2+ macrophages) of 4T1 tumor-bearing mice; assay: Flow cytometry of FAM-peptide binding to peritoneal cells from 4T1 tumor mice; format: cell-based, mouse
Method: A, Change in fluorescence anisotropy of FAM-UNO (dotted line) and FAM-UNO in DTT (solid line) while incubating with mouse recombinant CD206. B, Change in fluorescence anisotropy of FAM-CSPGAK with mouse recombinant CD206 (solid line) or with CD163 (dotted line) and of FAM-CPMTDNE (control) with CD206 (dashed line). C, FAM-UNO binds selectively to CCR2^+ macrophages collected from the peritoneal cavity of 4T1 tumor-bearing mice, as 94.3% of FAM^+ cells are CCR2^+ cells. The analysis was done gating for the FAM^+ population (left panel). In these 4T1 tumor bearing mice, 58% of peritoneal cells are macrophages, i.e. CCR2^+ cells (right panel). D, FAM-UNO binding to peritoneal cells is inhibited by preincubating with 10 µg/mL of anti-CD206, whereas the preincubation with anti CD206 antibody had no effect on FAM-LyP-1 binding. In panels A and D are shown representative graphs from three independent experiments. In panels c and d are shown results from three independent experiments (n=3 mice) and bars of panel D represents mean+SEM.
Peritoneal cells were extracted from Balb/c mice 2 weeks after inoculation of 10^6 cells orthotopically). Mice were anesthetized and intraperitoneally injected with 5 mL of PBS+1% BSA, the abdomen was massaged to detach macrophages and the peritoneal fluid was collected. This procedure typically yielded 5-9×10^6 cells. Cells were concentrated to 1 mL in the same peritoneal fluid. For FAM-peptide incubation, the peptides were incubated for 30 minutes at 4° C. For antibody incubation the cells were incubated with antibody for 1 h at 4° C. A647 Rat anti-CCR2 (Biolegend, CA, USA. Catalog number 150603) was incubated for 1 h at 4° C. at a dilution of 1/200. FAM-peptides were incubated at a concentration of 0.5 μg/mL, and Rat anti-CD206 (Bio-Rad, CA, USA. Product code MCA2235GA) was incubated at a concentration of 10 μg/mL. Binding of FAM-peptides was monitored with 488 nm channel and CCR2 labeling was assessed in the 647 nm channel using A647 Anti-CCR2 (Biolegend, CA, USA). After incubation of FAM-Peptides or antibodies, the cells were washed 3 times at 4° C. with PBS-Tby centrifugation at 250 g for 6 minutes, followed by flow cytometry analysis (Accuri, BD Biosciences, CA, USA).

T1 sequence (Q2VLH6 39-1121): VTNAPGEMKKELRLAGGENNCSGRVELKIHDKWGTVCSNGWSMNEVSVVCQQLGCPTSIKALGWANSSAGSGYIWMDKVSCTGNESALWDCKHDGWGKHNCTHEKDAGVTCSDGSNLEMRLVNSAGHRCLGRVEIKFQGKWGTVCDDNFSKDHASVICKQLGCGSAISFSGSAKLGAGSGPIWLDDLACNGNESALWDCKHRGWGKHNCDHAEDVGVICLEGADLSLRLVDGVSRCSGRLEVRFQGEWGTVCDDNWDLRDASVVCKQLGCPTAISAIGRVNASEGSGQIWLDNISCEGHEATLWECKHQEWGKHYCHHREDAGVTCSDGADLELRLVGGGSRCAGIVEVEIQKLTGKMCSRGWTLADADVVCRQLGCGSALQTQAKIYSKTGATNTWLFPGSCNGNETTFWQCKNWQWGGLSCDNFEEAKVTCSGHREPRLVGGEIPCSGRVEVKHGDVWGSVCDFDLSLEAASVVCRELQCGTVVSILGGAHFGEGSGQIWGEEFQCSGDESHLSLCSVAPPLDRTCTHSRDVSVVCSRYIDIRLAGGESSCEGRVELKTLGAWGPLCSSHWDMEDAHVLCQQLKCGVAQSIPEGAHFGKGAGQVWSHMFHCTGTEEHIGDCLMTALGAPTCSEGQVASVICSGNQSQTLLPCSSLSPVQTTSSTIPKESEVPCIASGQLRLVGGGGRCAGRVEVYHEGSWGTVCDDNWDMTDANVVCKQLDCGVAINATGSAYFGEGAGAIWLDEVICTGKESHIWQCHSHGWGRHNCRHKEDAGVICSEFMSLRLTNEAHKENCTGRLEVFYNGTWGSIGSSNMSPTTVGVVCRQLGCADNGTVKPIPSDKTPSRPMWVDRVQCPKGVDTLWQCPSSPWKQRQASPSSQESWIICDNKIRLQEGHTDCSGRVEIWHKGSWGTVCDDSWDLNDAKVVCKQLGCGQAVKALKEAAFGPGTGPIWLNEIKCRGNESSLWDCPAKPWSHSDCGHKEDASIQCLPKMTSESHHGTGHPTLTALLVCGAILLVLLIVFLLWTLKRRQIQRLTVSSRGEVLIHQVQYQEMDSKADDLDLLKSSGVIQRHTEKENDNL

Substance	change in fluorescence anisotropy with CD163 (recombinant mouse CD163)	cells gated for CCR2+ that were positive for FAM-UNO binding ([1]; 0.5 μg/mL peptide, 30 min, 4 °C) [%]	reduction of binding to peritoneal cells by pre-incubation with anti-CD206 antibody ([1]; anti-CD206 10 μg/mL) [%]	FAM+ cells that are CCR2+ cells (macrophages) ([1]; gated for the FAM+ population, 0.5 μg/mL peptide, 30 min, 4 °C)
FAM-CSPGAK: FAM-labeled linear CSPGAK (SEQ ID NO: 6) (not fully specified; FAM label)	no change in anisotropy			
FAM-UNO: FAM-labeled UNO peptide CSPGAKVRC (SEQ ID NO: 1); 5(6)-carboxyfluorescein with 6-aminohexanoic acid spacer at the N-terminus ({FAM-Ahx}-CSPGAKVRC; cysteine pairing not given here)		94	25	94.3% and 95%
